US20240390502A1, “DELIVERY SYSTEMS FOR BIOACTIVE LIPIDS” (The Trustees of Columbia University in The City of New York, priority 2021, published 2024)

Assays:
[1] = tested on: hypoxic-ischemic brain injury; assay: hypoxic-ischemic brain injury mouse model, cerebral infarct volume; assay type: in vivo; details: direct acute administration of NPD1 (10 ng, 20 ng) after hypoxic-ischemic injury, compared to control (saline) group; FIG. 2A

Description for brain mitochondria: FIG. 2C is a western blot mean quantification for BAX 6A7 in naïve (n=6), saline (n=7) and NPD1 (n=8) at 4 h after ischemic injury.

SMILES: CC/C=C\C[C@H](O)\C=C/C=C/C=C/[C@H](O)C/C=C\C/C=C\CCC(=O)O [NPD1, neuroprotection D1]
- cerebral infarct volumes [1]: significant reduction in cerebral infarct volumes
- mitochondrial Ca2+ buffering capacity (brain mitochondria; NPD1 treatment after hypoxic-ischemic injury): preserved mitochondrial Ca2+ buffering capacity
- mitochondria-related cell death pathways (brain mitochondria; NPD1 treatment, BAX 6A7 western blot at 4 h after ischemic injury (FIG. 2C)): reduced mitochondria-related cell death pathways
